Key:
SIK1 = target: T1, SIK1 (Homo sapiens, UniProt P57059); assay: ADP-Glo kinase assay, SIK1; format: biochemical; settings: ADP-Glo SIK kinase assay
T1 construct: purchased Carna Biosciences 02-131
In short: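 Enzyme–substrate mix was started with ATP and incubated 120 min at RT. ADP formed was quantified by ADP-Glo: 40 min ATP depletion, then 30 min detection reagent converting ADP to ATP for luciferase luminescence, which rises with kinase activity. Controls: 1% DMSO and 10 μM staurosporine (final).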

SIK3 = target: T2, SIK3 (Homo sapiens, UniProt Q9Y2K2); assay: ADP-Glo kinase assay, SIK3; format: biochemical; settings: ADP-Glo SIK kinase assay
T2 construct: purchased SignalChem S12-11G-100
T2 sequence (Q9Y2K2 whole entry): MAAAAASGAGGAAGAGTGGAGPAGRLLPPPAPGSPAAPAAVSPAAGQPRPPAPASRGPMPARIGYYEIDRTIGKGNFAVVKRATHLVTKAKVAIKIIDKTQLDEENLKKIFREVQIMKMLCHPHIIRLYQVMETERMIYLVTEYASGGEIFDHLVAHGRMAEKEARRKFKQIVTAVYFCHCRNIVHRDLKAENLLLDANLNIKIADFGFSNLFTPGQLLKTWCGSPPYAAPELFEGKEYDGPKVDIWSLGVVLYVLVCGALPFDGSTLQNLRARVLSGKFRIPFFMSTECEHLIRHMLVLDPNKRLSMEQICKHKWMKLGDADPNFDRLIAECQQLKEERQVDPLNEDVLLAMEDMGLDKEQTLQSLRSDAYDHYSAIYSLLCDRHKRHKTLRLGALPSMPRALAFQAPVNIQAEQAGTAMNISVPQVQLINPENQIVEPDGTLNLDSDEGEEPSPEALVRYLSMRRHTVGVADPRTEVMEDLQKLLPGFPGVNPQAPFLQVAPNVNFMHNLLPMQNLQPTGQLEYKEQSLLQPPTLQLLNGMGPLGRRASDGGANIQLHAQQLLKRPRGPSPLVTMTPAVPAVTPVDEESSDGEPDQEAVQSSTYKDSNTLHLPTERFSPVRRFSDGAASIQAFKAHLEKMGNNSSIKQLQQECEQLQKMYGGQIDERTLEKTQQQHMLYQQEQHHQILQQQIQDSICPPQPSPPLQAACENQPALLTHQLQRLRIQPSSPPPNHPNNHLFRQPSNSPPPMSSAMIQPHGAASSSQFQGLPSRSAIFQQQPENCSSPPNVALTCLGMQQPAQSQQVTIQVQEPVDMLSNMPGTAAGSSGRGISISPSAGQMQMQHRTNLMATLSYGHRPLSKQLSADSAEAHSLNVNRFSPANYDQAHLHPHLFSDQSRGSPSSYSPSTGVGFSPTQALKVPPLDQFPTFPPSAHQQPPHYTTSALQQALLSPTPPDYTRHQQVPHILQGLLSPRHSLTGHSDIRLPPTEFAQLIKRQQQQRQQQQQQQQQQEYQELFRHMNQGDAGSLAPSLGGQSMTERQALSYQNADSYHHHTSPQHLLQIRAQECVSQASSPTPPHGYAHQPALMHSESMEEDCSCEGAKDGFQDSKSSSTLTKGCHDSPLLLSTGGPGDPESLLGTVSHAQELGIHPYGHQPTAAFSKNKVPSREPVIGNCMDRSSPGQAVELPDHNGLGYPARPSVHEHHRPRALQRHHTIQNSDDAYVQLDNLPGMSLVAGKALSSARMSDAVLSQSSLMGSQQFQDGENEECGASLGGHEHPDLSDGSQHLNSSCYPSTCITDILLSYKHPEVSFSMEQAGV
In short: (§1)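 Wells with 1% DMSO or 10 μM staurosporine (final) define the control window. The kinase reaction with substrate and ATP runs 120 min at RT, followed by ADP-Glo detection: ATP depletion (40 min) and ADP-derived luminescence (30 min).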

[1] = tested on: LPS-induced TNFα in monocyte-derived macrophages (MdM); assay: MdM assay: LPS-triggered TNFα (ELISA); format: cell-based, human; settings: Homo sapiens, Macrophage, 20 h, monocyte-derived macrophages, LPS 200 ng/mL, supernatant after 20 h; read-out: TNFα EC50
Protocol: This assay evaluates illustrative compounds of the invention for their inhibition of LPS-induced TNFα and LPS triggered IL-10 secretion in monocyte-derived macrophages.
PBMCs are isolated from human blood samples (buffycoats). The buffy coat is aseptically transferred into a 50 mL Falcon tube, and diluted 1/2 in PBS. Falcon tubes are filled with 20 mL Lymphoprep™, on top of which 25 mL of the buffy coat is carefully added, tubes are centrifuged for 35 min at 400 g in temperature controlled centrifuge, without brake, at 25° C. PBMCs are aspirated from the white interface layer between sample and Lymphoprep™. PBMCs are washed five times in PBS.
PBMCs are centrifuged at 300×g for 10 min and resuspended at a density of 1.0*10^7 cells/80 μL Miltenyi buffer (PBS, pH 7.4, 1% FBS, 2 mM EDTA).
Starting from this point of the protocol all steps are performed on ice. 20 μL of CD14+ micro-beads are added per 1.0*10^7 cells, the tube is mixed and incubated for 15 min in the fridge at 4° C. Cell suspension volume is adjusted to total volume of 100 mL using Miltenyi buffer, mixed gently and subsequently centrifuged for 10 min at 300×g. Supernantant is discarded and cell pellet is resuspended in 12 mL of Miltenyi buffer.
Four LS columns are placed in the MACS Separator (magnet) from Miltenyi Biotec, and are prewet by rinsing with 3 mL of MACS buffer per column. Three mL of cell suspension is added onto the column (max 1*10^8 of labelled cells/column), and columns are subsequently washed 3 times with 3 mL of Miltenyi buffer.
The columns are removed from the magnets, and 5 mL of Miltenyi buffer are added to the column to flush out the CD14+ fraction by pushing the plunger into the column. The flushed fractions are collected in a fresh 50 mL Falcon and volume is adjusted to 30 mL using Miltenyi buffer, cells are centrifuged for 10 min at 300×g. The obtained cell pellet is resuspended in 10 mL RPMI w/o FBS, and cell density is determined using a hematologic analyser (Sysmex XS-500i).
On day 10, MdMs are triggered and compound is added.
A compound dilution plate is made in 100% DMSO by 3-fold dilution of 10 mM stock solution. An intermediate dilution plate (10× final concentration) is made by diluting the compound dilution plate 50-fold in RPMI medium.
Medium is carefully removed from cell plates using multichannel pipette, and replaced by 80 μL fresh medium. 10 μL of the 10× final concentration compound is added to the cells and incubated for 1 hour at 37° C. before addition of trigger. No trigger conditions/trigger conditions are spiked with equal final DMSO concentrations of 0.2% DMSO. 10 μL of 10×LPS (final conc. 200 ng/mL) solution are added to all wells except for the ‘no trigger wells’ where 10 μL medium is added. Supernatant is collected after 2 h (IL-10 determination) and after 20 h (TNFα determination) of LPS triggering.
The plate is then washed once with PBST (PBS+0.05% Tween20) and once with PBS followed by the addition of 100 μL of blocking buffer (1% Bovine Serum Albumin (BSA)−5% Sucrose) and plates are sealed and incubated for at least 4 h at RT. After washing the plate once with PBST and once with PBS, 40 μL of standard or sample are added (TNFα standard curve is prepared using a 1/2 serial dilution starting from […]; dilutions are made in dilution buffer (PBS+1% BSA)). Plates are washed twice with PBST, and once with PBS, after which 35 μL of the detection antibody is added (final concentration 0.25 μg/mL diluted in dilution buffer) and plates are incubated for at least 2 h at RT. Plates are washed twice with PBST, and once with PBS, where after 35 μL of Strep-HRP conjugate (0.5 μg/mL final concentration diluted in dilution buffer) is added. Plates are incubated in the dark, at RT for at least 45 min but no longer than 1 hour. Plates are washed twice with PBST, and once with PBS.

SIK2 = target: T3, SIK2 (Homo sapiens, UniProt Q9H0K1); assay: ADP-Glo kinase assay, SIK2; format: biochemical; settings: ADP-Glo SIK kinase assay
T3 construct: purchased ThermoFisher Scientific PV4792
T3 sequence (Q9H0K1 whole entry): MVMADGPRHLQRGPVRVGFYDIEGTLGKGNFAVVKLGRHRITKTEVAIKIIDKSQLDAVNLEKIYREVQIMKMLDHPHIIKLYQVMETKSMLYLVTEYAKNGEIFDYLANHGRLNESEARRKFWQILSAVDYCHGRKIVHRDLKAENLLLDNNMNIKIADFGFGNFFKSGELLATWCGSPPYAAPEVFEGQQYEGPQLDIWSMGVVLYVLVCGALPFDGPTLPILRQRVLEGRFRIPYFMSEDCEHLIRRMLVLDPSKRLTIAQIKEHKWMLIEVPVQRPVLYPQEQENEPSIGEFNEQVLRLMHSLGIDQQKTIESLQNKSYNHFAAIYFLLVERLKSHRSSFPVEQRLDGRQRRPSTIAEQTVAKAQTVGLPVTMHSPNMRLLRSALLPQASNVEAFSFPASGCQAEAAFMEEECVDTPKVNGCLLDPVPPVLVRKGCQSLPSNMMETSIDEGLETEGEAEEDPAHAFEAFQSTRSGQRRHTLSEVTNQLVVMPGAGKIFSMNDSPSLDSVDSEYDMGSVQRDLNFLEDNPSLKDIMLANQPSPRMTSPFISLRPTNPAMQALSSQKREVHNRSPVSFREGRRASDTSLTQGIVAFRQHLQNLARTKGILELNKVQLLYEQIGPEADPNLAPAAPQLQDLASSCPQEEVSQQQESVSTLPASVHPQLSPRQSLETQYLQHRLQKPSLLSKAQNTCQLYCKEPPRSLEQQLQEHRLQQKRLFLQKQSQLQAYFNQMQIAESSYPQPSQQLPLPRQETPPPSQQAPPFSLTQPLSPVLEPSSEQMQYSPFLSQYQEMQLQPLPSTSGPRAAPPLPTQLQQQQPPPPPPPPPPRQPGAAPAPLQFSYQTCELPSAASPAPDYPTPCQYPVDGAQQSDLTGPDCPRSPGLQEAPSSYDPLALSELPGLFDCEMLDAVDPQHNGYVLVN
In short: as §1

T1 sequence (P57059 whole entry): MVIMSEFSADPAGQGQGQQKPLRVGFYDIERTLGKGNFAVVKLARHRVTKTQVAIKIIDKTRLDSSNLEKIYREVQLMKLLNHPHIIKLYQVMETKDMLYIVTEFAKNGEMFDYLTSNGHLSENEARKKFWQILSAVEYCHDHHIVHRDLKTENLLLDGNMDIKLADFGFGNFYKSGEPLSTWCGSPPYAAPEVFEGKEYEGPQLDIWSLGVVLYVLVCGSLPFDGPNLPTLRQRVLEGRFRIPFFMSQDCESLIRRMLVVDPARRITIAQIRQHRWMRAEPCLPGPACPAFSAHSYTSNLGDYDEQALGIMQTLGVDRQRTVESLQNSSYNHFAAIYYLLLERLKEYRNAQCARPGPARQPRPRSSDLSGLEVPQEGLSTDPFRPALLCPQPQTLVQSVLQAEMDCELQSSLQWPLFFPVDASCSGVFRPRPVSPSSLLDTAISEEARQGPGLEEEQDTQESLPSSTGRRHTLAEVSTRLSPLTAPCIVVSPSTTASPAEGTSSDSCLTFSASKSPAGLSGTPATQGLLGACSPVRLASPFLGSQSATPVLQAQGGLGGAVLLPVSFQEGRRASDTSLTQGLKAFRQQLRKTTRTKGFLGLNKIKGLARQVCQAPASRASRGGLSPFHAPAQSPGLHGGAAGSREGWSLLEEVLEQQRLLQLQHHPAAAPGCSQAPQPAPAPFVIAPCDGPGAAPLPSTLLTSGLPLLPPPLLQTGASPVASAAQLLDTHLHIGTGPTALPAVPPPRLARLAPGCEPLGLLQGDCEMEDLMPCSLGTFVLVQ

| SMILES | IC50 (SIK1) [nM] | IC50 (SIK3) [nM] | EC50 [1] [nM] | IC50 (SIK2) [nM] |
| --- | --- | --- | --- | --- |
| COc1cc(-c2cnc3cc(OC4CC5CCC4C5)ccn23)cc(OC(F)F)c1C(=O)NC1CC1 (stereo not drawn) [compound 58, N-cyclopropyl-2-(difluoromethoxy)-6-methoxy-4-(7-norbornan-2-yloxyimidazo[1,2-a]pyridin-3-yl)benzamide] | 10 to 100 | 0.01 to 10 | 1000 to 5000 | 10 to 100 |
| COc1cc(-c2cnc3cc(OC[C@@H]4CC(F)(F)CN4C)ccn23)cc(OC(F)F)c1C(=O)NC1CC1 [Cpd 189, N-cyclopropyl-2-(difluoromethoxy)-4-[7-[[(2S)-4,4-difluoro-1-methyl-pyrrolidin-2-yl]methoxy]imidazo[1,2-a]pyridin-3-yl]-6-methoxy-benzamide] | 10 to 100 | 0.01 to 10 | 100 to 1000 | 0.01 to 10 |
| COc1cc(-c2cnc3cc(OC4COC4)ccn23)cc(OC(F)F)c1C(=O)NC1CC1 [compound 152, N-cyclopropyl-2-(difluoromethoxy)-6-methoxy-4-[7-(oxetan-3-yloxy)imidazo[1,2-a]pyridin-3-yl]benzamide] | 10 to 100 | 0.01 to 10 | – | 10 to 100 |
| CCOC(=O)CN1CCCCC1COc1ccn2c(-c3cc(OC)c(C(=O)NC4CC4)c(OC(F)F)c3)cnc2c1 (stereo not drawn) [Cpd 397, ethyl 2-[2-[[3-[4-(cyclopropylcarbamoyl)-3-(difluoromethoxy)-5-methoxy-phenyl]imidazo[1,2-a]pyridin-7-yl]oxymethyl]-1-piperidyl]acetate] | 10 to 100 | 0.01 to 10 | – | 10 to 100 |
| COc1cc(-c2cnc3cc(OCC4CCCCN4CC#N)ccn23)cc(OC(F)F)c1C(=O)NC1CC1 (stereo not drawn) [compound 269, 4-[7-[[1-(cyanomethyl)-2-piperidyl]methoxy]imidazo [1,2-a]pyridin-3-yl]-N-cyclopropyl-2-(difluoromethoxy)-6-methoxy-benzamide] | 10 to 100 | 0.01 to 10 | – | 10 to 100 |
| COc1cc(-c2cnc3cc(OCC4CCCN(C=O)C4)ccn23)cc(OC(F)F)c1C(=O)NC1CC1 (stereo not drawn) [compound 142, N-cyclopropyl-2-(difluoromethoxy)-4-[7-[(1-formyl-3-piperidyl)methoxy]imidazo [1,2-a]pyridin-3-yl]-6-methoxy-benzamide] | 0.01 to 10 | 0.01 to 10 | – | 0.01 to 10 |
| COc1cc(-c2cnc3cc(OCC4CCCCN4CC(F)F)ccn23)cc(OC(F)F)c1C(=O)NC1CC1 (stereo not drawn) [compound 149, N-cyclopropyl-4-[7-[[1-(2,2-difluoroethyl)-2-piperidyl]methoxy]imidazo [1,2-a]pyridin-3-yl]-2-(difluoromethoxy)-6-methoxy-benzamide] | 10 to 100 | 0.01 to 10 | – | 10 to 100 |
| COc1cc(-c2cnc3cc(OCCN4CCOCC4)ccn23)cc2ccn(CC(F)(F)F)c(=O)c12 [Cpd 221, 8-methoxy-6-[7-(2-morpholinoethoxy)imidazo [1,2-a]pyridin-3-yl]-2-(2,2,2-trifluoroethyl) isoquinolin-1-one] | > 500 | 10 to 100 | – | 10 to 100 |

Now from value to compound:

| IC50 (SIK1) [nM] | IC50 (SIK3) [nM] | EC50 [1] [nM] | IC50 (SIK2) [nM] | SMILES |
| --- | --- | --- | --- | --- |
| 100 to 500 | 0.01 to 10 | 100 to 1000 | 0.01 to 10 | COc1cc(-c2cnc3cc(OCC4(C)CCCN4)ccn23)cc(OC(F)F)c1C(=O)NC1CC1 (stereo not drawn) [compound 168, N-cyclopropyl-2-(difluoromethoxy)-6-methoxy-4-[7-[(2-methylpyrrolidin-2-yl)methoxy]imidazo[1,2-a]pyridin-3-yl]benzamide] |
| 100 to 500 | 0.01 to 10 | 100 to 1000 | 10 to 100 | COc1cc(-c2cnc3cc(OCc4ccnn4C)ccn23)cc2c1C(=O)N(CC(F)(F)F)CC2 [compound 84, 8-methoxy-6-[7-[(2-methylpyrazol-3-yl)methoxy]imidazo[1,2-a]pyridin-3-yl]-2-(2,2,2-trifluoroethyl)-3,4-dihydroisoquinolin-1-one] |
| 100 to 500 | 0.01 to 10 | 100 to 1000 | 0.01 to 10 | COc1cc(-c2cnc3cc(OCc4nccn4C)ccn23)cc(OC(F)F)c1C(=O)NC1CC1 [compound 110, N-cyclopropyl-2-(difluoromethoxy)-6-methoxy-4-[7-[(1-methylimidazol-2-yl)methoxy]imidazo[1,2-a]pyridin-3-yl]benzamide] |
| 100 to 500 | 0.01 to 10 | 100 to 1000 | 0.01 to 10 | O=C1c2c(cc(-c3cnc4cc(OCCN5CCOCC5)ccn34)cc2OC(F)F)CCN1C1CC1 [Cpd 224, 2-cyclopropyl-8-(difluoromethoxy)-6-[7-(2-morpholinoethoxy)imidazo [1,2-a]pyridin-3-yl]-3,4-dihydroisoquinolin-1-one] |
| 100 to 500 | 0.01 to 10 | – | 0.01 to 10 | CNC(C)(C)COc1ccn2c(-c3cc(OC)c(C(=O)NC4CC4)c(OC(F)F)c3)cnc2c1 [Cpd 153, N-cyclopropyl-2-(difluoromethoxy)-6-methoxy-4-[7-[2-methyl-2-(methylamino)propoxy]imidazo[1,2-a]pyridin-3-yl]benzamide] |
| 0.01 to 10 | 0.01 to 10 | – | 0.01 to 10 | COc1cc(-c2cnc3cc(OCCN4CCCC4=O)ccn23)cc(OC(F)F)c1C(=O)NC1CC1 [compound 63, N-cyclopropyl-2-(difluoromethoxy)-6-methoxy-4-[7-[2-(2-oxopyrrolidin-1-yl)ethoxy]imidazo[1,2-a]pyridin-3-yl]benzamide] |
| 10 to 100 | 0.01 to 10 | – | 0.01 to 10 | COc1cc(-c2cnc3cc(OCCO)ccn23)cc(OC(F)F)c1C(=O)NC1CC1 [compound 30, N-cyclopropyl-2-(difluoromethoxy)-4-[7-(2-hydroxyethoxy)imidazo [1,2-a]pyridin-3-yl]-6-methoxy-benzamide] |
| 10 to 100 | 0.01 to 10 | – | 0.01 to 10 | COc1cc(-c2cnc3cc(OCCN(C)CC(F)F)ccn23)cc(OC(F)F)c1C(=O)NC1CC1 [compound 236, N-cyclopropyl-4-[7-[2-[2,2-difluoroethyl(methyl)amino]ethoxy]imidazo[1,2-a]pyridin-3-yl]-2-(difluoromethoxy)-6-methoxy-benzamide] |
| 0.01 to 10 | 0.01 to 10 | – | 0.01 to 10 | COc1cc(-c2cnc3cc(OCCOCCN(C)C)ccn23)cc(OC(F)F)c1C(=O)NC1CC1 [compound 65, N-cyclopropyl-2-(difluoromethoxy)-4-[7-[2-[2-(dimethylamino)ethoxy]ethoxy]imidazo[1,2-a]pyridin-3-yl]-6-methoxy-benzamide] |
| 0.01 to 10 | 0.01 to 10 | – | 0.01 to 10 | COc1cc(-c2cnc3cc(OCC4CCCCN4S(C)(=O)=O)ccn23)cc(OC(F)F)c1C(=O)NC1CC1 (stereo not drawn) [Cpd 129, N-cyclopropyl-2-(difluoromethoxy)-6-methoxy-4-[7-[(1-methylsulfonyl-2-piperidyl)methoxy]imidazo[1,2-a]pyridin-3-yl]benzamide] |
